This data set has as its system Cited1. The data set is described as follows: In situ reprogramming by renal pelvis hydrodynamic injection. As to conditions: Cited1-CreERT2 BAC transgenic mice, 72 h post-injection. The format is in vivo, mouse. Here is the method:
Renal pelvis hydrodynamic injection was performed as previously described (Woodard et al Sci Rep 2017, Woodard et al J. Vis. Exp. 2017) on 15 week-old Cited1-CreER^T2 BAC transgenic mice (Boyle et al Dev. Biol. 2008). Mice were assayed for presence of the GFP transgene at weaning (Transnetyx, Cordova, Tenn.). A solution of 50 ug of pT-mSES in 100 uL of buffer QR (Minis Bio, Madison, Wis.) was injected quickly into the renal pelvis of mice anesthetized with ketamine/xylazine. Mice were treated every 8-12 h with buprenorphine for pain management for 48 h and sacrificed at 72 h post-injection.
There were eGFP-positive cells with a similar morphology present in both QR-injected and pT-mSES-injected transgenic animals (FIG. 16, panels a and b). However, only in the pT-mSES-injected transgenic animals were there cells appearing to be derived from tubule-like structures that were eGFP-positive (FIG. 16c). In contrast, in wild-type, non-transgenic mice receiving either QR or pT-mSES, no positive eGFP cells could be found. Therefore, cellular reprogramming to an induced nephron progenitor state may be possible in vivo following gene delivery of Snai2, Six1 and Eya1.

For the substance “pT-mSES: piggyBac transposon plasmid (SEQ ID NO:12) expressing mouse Six1, Snai2 and Eya1 from the elongation factor 1 alpha promoter”, the “eGFP expression from the Cited1 promoter” value is “induced eGFP expression indicative of Cited1 positivity”.

The values above are taken from patent publication US11492644B2, “Genetically induced nephron progenitors” (MURDOCH CHILDRENS RESEARCH INSTITUTE, priority 2017, dated 2022).
